Reference: US20080051387A1, “TETRAHYDROPYRIDO[3,4-D]PYRIMIDINES AND RELATED ANALOGUES” (priority 2006, published 2008)

Each compound was assayed against T1, chimeric human H3 receptor (Homo sapiens, UniProt Q9Y5N1) (assay: Chimeric human H3 receptor screening GTP binding assay (inhibition of histamine-stimulated GTP-gamma35S binding, Example 8)). Conditions: symbol ! in Ki; test compound 4 μM, 1 μM histamine; read-out: percent inhibition of agonist-induced GTP-gammaS binding to H3.
T1 construct: rat Galpha-i2 (Gnai2, rat); made in house; host or cells: Sf9 insect cells (baculovirus); P2 membranes
Assay type: biochemical
Summary of the method: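 Compound tested at 4 μM against 1 μM histamine stimulation; 125 pM GTP-gamma35S binding measured by filtration and scintillation after 60 min at room temperature. Membranes from Sf9 cells expressing chimeric human H3 plus G-protein subunits, in Tris pH 7.4/NaCl/MgCl2/GDP buffer; values are % inhibition after nonspecific subtraction.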

T1 sequence (Q9Y5N1 with tags, fused parts or gaps): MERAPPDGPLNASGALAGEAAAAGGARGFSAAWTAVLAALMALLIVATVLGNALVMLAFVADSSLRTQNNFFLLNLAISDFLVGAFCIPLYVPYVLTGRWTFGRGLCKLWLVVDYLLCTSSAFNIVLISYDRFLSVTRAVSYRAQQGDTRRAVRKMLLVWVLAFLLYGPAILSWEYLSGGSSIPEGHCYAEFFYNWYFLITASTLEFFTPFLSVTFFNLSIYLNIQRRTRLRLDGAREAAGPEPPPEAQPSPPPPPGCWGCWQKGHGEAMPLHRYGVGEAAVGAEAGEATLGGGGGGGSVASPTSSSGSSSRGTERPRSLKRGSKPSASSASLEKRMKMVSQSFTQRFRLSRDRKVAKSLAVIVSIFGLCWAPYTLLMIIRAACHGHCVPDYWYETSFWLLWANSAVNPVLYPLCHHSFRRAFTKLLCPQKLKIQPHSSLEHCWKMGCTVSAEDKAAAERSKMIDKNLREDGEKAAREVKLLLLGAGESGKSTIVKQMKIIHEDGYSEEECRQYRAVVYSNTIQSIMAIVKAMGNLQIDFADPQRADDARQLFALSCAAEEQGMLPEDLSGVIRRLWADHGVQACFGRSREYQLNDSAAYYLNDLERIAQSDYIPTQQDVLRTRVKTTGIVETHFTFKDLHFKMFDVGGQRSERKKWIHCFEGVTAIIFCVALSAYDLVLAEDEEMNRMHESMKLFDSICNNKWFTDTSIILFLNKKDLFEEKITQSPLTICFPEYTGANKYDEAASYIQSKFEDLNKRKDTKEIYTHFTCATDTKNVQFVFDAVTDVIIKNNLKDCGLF

| inhibition at 4 µM [%] | Compound |
| --- | --- |
| ≥ 90 | CC(C)c1ccc(C(C)N2CCc3c(ncnc3N3CCN(C4CCC4)CC3)C2)cc1 (stereo not drawn) [Compound 115, 4-(4-cyclobutylpiperazin-1-yl)-7-[1-(4-isopropylphenyl)ethyl]-5,6,7,8-tetrahydropyrido[3,4-d]pyrimidine] |
| ≥ 90 | CC(C)CC(C)N1CCc2c(ncnc2N2CCN(C3CCC3)CC2)C1 (stereo not drawn) [Compound 116, 4-(4-cyclobutylpiperazin-1-yl)-7-(1,3-dimethylbutyl)-5,6,7,8-tetrahydropyrido[3,4-d]pyrimidine] |
| ≥ 90 | CCC(C)N1CCc2c(ncnc2N2CCN(C3CCC3)CC2)C1 (stereo not drawn) [Compound 117, 7-sec-butyl-4-(4-cyclobutylpiperazin-1-yl)-5,6,7,8-tetrahydropyrido[3,4-d]pyrimidine] |
| ≥ 90 | CCCC(C)N1CCc2c(ncnc2N2CCN(C3CCC3)CC2)C1 (stereo not drawn) [Compound 118, 4-(4-cyclobutylpiperazin-1-yl)-7-(1-methylbutyl)-5,6,7,8-tetrahydropyrido[3,4-d]pyrimidine] |
| ≥ 90 | CCCCC(C)N1CCc2c(ncnc2N2CCN(C3CCC3)CC2)C1 (stereo not drawn) [Compound 119, 4-(4-cyclobutylpiperazin-1-yl)-7-(1-methylpentyl)-5,6,7,8-tetrahydropyrido[3,4-d]pyrimidine] |
| ≥ 90 | CCCCCC(C)N1CCc2c(ncnc2N2CCN(C3CCC3)CC2)C1 (stereo not drawn) [Compound 120, 4-(4-cyclobutylpiperazin-1-yl)-7-(1-methylhexyl)-5,6,7,8-tetrahydropyrido[3,4-d]pyrimidine] |
| ≥ 90 | CC(C)C(C)N1CCc2c(ncnc2N2CCN(C3CCC3)CC2)C1 (stereo not drawn) [Compound 121, 4-(4-cyclobutylpiperazin-1-yl)-7-(1,2-dimethylpropyl)-5,6,7,8-tetrahydropyrido[3,4-d]pyrimidine] |
| ≥ 90 | CCC(C)C(C)N1CCc2c(ncnc2N2CCN(C3CCC3)CC2)C1 (stereo not drawn) [Compound 122, 4-(4-cyclobutylpiperazin-1-yl)-7-(1,2-dimethylbutyl)-5,6,7,8-tetrahydropyrido[3,4-d]pyrimidine] |
| ≥ 90 | CCC(CC)C(C)N1CCc2c(ncnc2N2CCN(C3CCC3)CC2)C1 (stereo not drawn) [Compound 123, 4-(4-cyclobutylpiperazin-1-yl)-7-(2-ethyl-1-methylbutyl)-5,6,7,8-tetrahydropyrido[3,4-d]pyrimidine] |
| ≥ 90 | CC(C1CC1)N1CCc2c(ncnc2N2CCN(C3CCC3)CC2)C1 (stereo not drawn) [Compound 124, 4-(4-cyclobutylpiperazin-1-yl)-7-(1-cyclopropylethyl)-5,6,7,8-tetrahydropyrido[3,4-d]pyrimidine] |
| ≥ 90 | CCCC(C)C(C)N1CCc2c(ncnc2N2CCN(C3CCC3)CC2)C1 (stereo not drawn) [Compound 125, 4-(4-cyclobutylpiperazin-1-yl)-7-(1,2-dimethylpentyl)-5,6,7,8-tetrahydropyrido[3,4-d]pyrimidine] |
| ≥ 90 | CC(C1CCCCC1)N1CCc2c(ncnc2N2CCN(C3CCC3)CC2)C1 (stereo not drawn) [Compound 126, 4-(4-cyclobutylpiperazin-1-yl)-7-(1-cyclohexylethyl)-5,6,7,8-tetrahydropyrido[3,4-d]pyrimidine] |
| ≥ 90 | CC(C1CCOC1)N1CCc2c(ncnc2N2CCN(C3CCC3)CC2)C1 (stereo not drawn) [Compound 127, 4-(4-cyclobutylpiperazin-1-yl)-7-[1-(tetrahydrofuran-3-yl)ethyl]-5,6,7,8-tetrahydropyrido[3,4-d]pyrimidine] |
| ≥ 90 | Cc1ccc(C(C)N2CCc3c(ncnc3N3CCN(C4CCC4)CC3)C2)cc1C (stereo not drawn) [Compound 128, 4-(4-cyclobutylpiperazin-1-yl)-7-[1-(3,4-dimethylphenyl)ethyl]-5,6,7,8-tetrahydropyrido[3,4-d]pyrimidine] |
| ≥ 90 | CC(c1ccc2c(c1)OCCO2)N1CCc2c(ncnc2N2CCN(C3CCC3)CC2)C1 (stereo not drawn) [Compound 129, 4-(4-cyclobutylpiperazin-1-yl)-7-[1-(2,3-dihydro-1,4-benzodioxin-6-yl)ethyl]-5,6,7,8-tetrahydropyrido[3,4-d]pyrimidine] |
| ≥ 90 | CC(c1ccc2ccccc2n1)N1CCc2c(ncnc2N2CCN(C3CCC3)CC2)C1 (stereo not drawn) [Compound 130, 4-(4-cyclobutylpiperazin-1-yl)-7-(1-quinolin-2-ylethyl)-5,6,7,8-tetrahydropyrido[3,4-d]pyrimidine] |
| ≥ 90 | COc1cccc(C(C)N2CCc3c(ncnc3N3CCN(C4CCC4)CC3)C2)c1OC (stereo not drawn) [Compound 131, 4-(4-cyclobutylpiperazin-1-yl)-7-[1-(2,3-dimethoxyphenyl)ethyl]-5,6,7,8-tetrahydropyrido[3,4-d]pyrimidine] |
| ≥ 90 | COc1ccc(OC)c(C(C)N2CCc3c(ncnc3N3CCN(C4CCC4)CC3)C2)c1 (stereo not drawn) [Compound 132, 4-(4-cyclobutylpiperazin-1-yl)-7-[1-(2,5-dimethoxyphenyl)ethyl]-5,6,7,8-tetrahydropyrido[3,4-d]pyrimidine] |

| inhibition at 4 µM [%] | Compound |
| --- | --- |
| ≥ 90 | CC(c1ccc(N2CCCC2)nc1)N1CCc2c(ncnc2N2CCN(C3CCC3)CC2)C1 (stereo not drawn) [Compound 133, 4-(4-cyclobutylpiperazin-1-yl)-7-[1-(6-pyrrolidin-1-ylpyridin-3-yl)ethyl]-5,6,7,8-tetrahydropyrido[3,4-d]pyrimidine] |
| ≥ 90 | Cc1c(F)cccc1C(C)N1CCc2c(ncnc2N2CCN(C3CCC3)CC2)C1 (stereo not drawn) [Compound 134, 4-(4-cyclobutylpiperazin-1-yl)-7-[1-(3-fluoro-2-methylphenyl)ethyl]-5,6,7,8-tetrahydropyrido[3,4-d]pyrimidine] |
| ≥ 90 | CC(c1ccccc1Cl)N1CCc2c(ncnc2N2CCN(C3CCC3)CC2)C1 (stereo not drawn) [Compound 135, 7-[1-(2-chlorophenyl)ethyl]-4-(4-cyclobutylpiperazin-1-yl)-5,6,7,8-tetrahydropyrido[3,4-d]pyrimidine] |
| ≥ 90 | CC(c1ccc(Cl)cc1Cl)N1CCc2c(ncnc2N2CCN(C3CCC3)CC2)C1 (stereo not drawn) [Compound 136, 4-(4-cyclobutylpiperazin-1-yl)-7-[1-(2,4-dichlorophenyl)ethyl]-5,6,7,8-tetrahydropyrido[3,4-d]pyrimidine] |
| ≥ 90 | CC(c1ccc(N2CCCC2)cc1)N1CCc2c(ncnc2N2CCN(C3CCC3)CC2)C1 (stereo not drawn) [Compound 137, 4-(4-cyclobutylpiperazin-1-yl)-7-[1-(4-pyrrolidin-1-ylphenyl)ethyl]-5,6,7,8-tetrahydropyrido[3,4-d]pyrimidine] |
| ≥ 90 | FC(F)(F)c1ccc(N2CCc3c(ncnc3N3CCN(C4CCC4)CC3)C2)nc1 [Compound 138, 4-(4-cyclobutylpiperazin-1-yl)-7-[5-(trifluoromethyl)pyridin-2-yl]-5,6,7,8-tetrahydropyrido[3,4-d]pyrimidine] |
| ≥ 90 | COC(=O)c1ccc(CN2CCc3c(ncnc3N3CCN(C4CCC4)CC3)C2)cc1 [Compound 139, methyl 4-{[4-(4-cyclobutylpiperazin-1-yl)-5,8-dihydropyrido[3,4-d]pyrimidin-7(6H)-yl]methyl}benzoate] |
| ≥ 90 | CNC(=O)c1ccc(CN2CCc3c(ncnc3N3CCN(C4CCC4)CC3)C2)cc1 [Compound 140, 4-{[4-(4-cyclobutylpiperazin-1-yl)-5,8-dihydropyrido[3,4-d]pyrimidin-7(6H)-yl]methyl}-N-methylbenzamide] |
| ≥ 90 | c1ccc(CN2CCc3ncnc(N4CCN(C5CCCC5)CC4)c3C2)cc1 [Compound 141, 6-benzyl-4-(4-cyclopentylpiperazin-1-yl)-5,6,7,8-tetrahydropyrido[4,3-d]pyrimidine] |
| ≥ 90 | Fc1ccccc1CN1CCc2ncnc(N3CCN(C4CCC4)CC3)c2CC1 [Compound 145, 4-(4-cyclobutylpiperazin-1-yl)-7-(2-fluorobenzyl)-6,7,8,9-tetrahydro-5H-pyrimido[4,5-d]azepine] |
| ≥ 90 | Fc1cccc(CN2CCc3ncnc(N4CCN(C5CCC5)CC4)c3CC2)c1 [Compound 146, 4-(4-cyclobutylpiperazin-1-yl)-7-(3-fluorobenzyl)-6,7,8,9-tetrahydro-5H-pyrimido[4,5-d]azepine] |
| ≥ 90 | Fc1ccc(CN2CCc3ncnc(N4CCN(C5CCC5)CC4)c3CC2)cc1 [Compound 147, 4-(4-cyclobutylpiperazin-1-yl)-7-(4-fluorobenzyl)-6,7,8,9-tetrahydro-5H-pyrimido[4,5-d]azepine] |
| ≥ 90 | Cc1cccc(CN2CCc3ncnc(N4CCN(C5CCC5)CC4)c3CC2)c1 [Compound 148, 4-(4-cyclobutylpiperazin-1-yl)-7-(3-methylbenzyl)-6,7,8,9-tetrahydro-5H-pyrimido[4,5-d]azepine] |
| ≥ 90 | Cc1ccc(CN2CCc3ncnc(N4CCN(C5CCC5)CC4)c3CC2)cc1 [Compound 149, 4-(4-cyclobutylpiperazin-1-yl)-7-(4-methylbenzyl)-6,7,8,9-tetrahydro-5H-pyrimido[4,5-d]azepine] |
| ≥ 90 | Cn1ccnc1CN1CCc2ncnc(N3CCN(C4CCC4)CC3)c2CC1 [Compound 150, 4-(4-cyclobutylpiperazin-1-yl)-7-[(1-methyl-1H-imidazol-2-yl)methyl]-6,7,8,9-tetrahydro-5H-pyrimido[4,5-d]azepine] |
| ≥ 90 | c1ccc2c(CN3CCc4ncnc(N5CCN(C6CCC6)CC5)c4CC3)ccnc2c1 [Compound 151, 4-(4-cyclobutylpiperazin-1-yl)-7-(quinolin-4-ylmethyl)-6,7,8,9-tetrahydro-5H-pyrimido[4,5-d]azepine] |
| ≥ 90 | c1ccc2ncc(CN3CCc4ncnc(N5CCN(C6CCC6)CC5)c4CC3)cc2c1 [Compound 152, 4-(4-cyclobutylpiperazin-1-yl)-7-(quinolin-3-ylmethyl)-6,7,8,9-tetrahydro-5H-pyrimido[4,5-d]azepine] |
| ≥ 90 | Cc1cccc(CN2CCc3ncnc(N4CCN(C5CCC5)CC4)c3CC2)n1 [Compound 153, 4-(4-cyclobutylpiperazin-1-yl)-7-[(6-methylpyridin-2-yl)methyl]-6,7,8,9-tetrahydro-5H-pyrimido[4,5-d]azepine] |
